ChEMBL document CHEMBL1159280, “Idiospermuline, a trimeric pyrrolidinoindoline alkaloid from the seed of Idiospermum australiense” (1995)
Active and inactive are the calls of the source. The rule behind the calls is not given here.

How the values were obtained:
Type in all cases: functional
[1] = species: Rattus norvegicus; test: Effect on neurochemical transmission in Sprague-Dawley rat cortical wedge assessed as hyperpolarization activity at 50 to 500 uM
[2] = Reduction of acetylcholine-induced depolarizing response in Sprague-Dawley rat cortical wedge at 50 uM relative to control; parameters: scale not given: the % may be the effect or the level left
[3] = Reduction of acetylcholine-induced depolarizing response in Sprague-Dawley rat cortical wedge at 10 uM relative to control; parameters: scale not given: the % may be the effect or the level left
[4] = species: Rattus norvegicus; test: Effect on neurochemical transmission in Sprague-Dawley rat cortical wedge assessed as hyperpolarization activity at 10 to 100 uM

**Q.** For `CN1CC[C@]23c4ccccc4N[C@H]1[C@]21CCN(C)[C@H]3Nc2ccccc21` [CALYCANTHINE], which Activity [1] is on record?
**A.** Active

**Q.** And the Activity [2]?
**A.** 20.4%

**Q.** Which Activity [3] does the source give for `CN1CC[C@]2([C@]34CCN(C)[C@H]3Nc3ccccc34)c3ccccc3N[C@H]12` [CHIMONANTHINE] here?
**A.** 58.3%

**Q.** What about the Activity [4] of the same molecule?
**A.** Active

**Q.** Which Activity [3] does the source give for `CN1CC[C@@]2(c3cccc4c3N[C@H]3N(C)CC[C@@]43[C@@]34CCN(C)[C@@H]3N(C)c3ccccc34)c3ccccc3N(C)[C@@H]12` [IDIOSPERMULINE] here?
**A.** 61.2%

**Q.** What about the Activity [4] of the same molecule?
**A.** Active
